“Also recorded” adds a separate entry of the source.

The values below come from patent publication US20220125876A1, “A METHOD OF IMMUNE MODULATION BY MODULATING ABCF1” (Pacific Myco Biosciences, Ltd., priority 2019, published 2022).

In test [1] the test system is ABCF1. As to the kind of experiment: Polyubiquitination state of ABCF1 in BMDM (immunoprecipitation with anti-ABCF1, immunoblot with anti-polyubiquitin antibodies). The class given is cell-based, mouse.
The target in a further test is T1, ubiquitin (Homo sapiens, UniProt P0CG48).
T1 construct: recombinant ABCF1, UBA1, and Ub proteins were incubated in the presence of cofactors; purchased abcam ab139467; host or cells: ubiquitin and E1 from the kit; ABCF1 immunoprecipitated from transfected mouse BMDM
As to the kind of experiment: In vitro ubiquitination assay. It counts as biochemical, mouse. The settings on record: with UBA1 (E1), Mg2+ and ATP, DTT sensitive. As for the experimental part:
In vitro ubiquitination Assay: Abcf1WT and Abcf1C647S expression plasmids were overexpressed in macrophages as described above. Before overexpressing Abcf1C647S expression plasmid, cells were treated with Abcf1 siRNA, as described above to eliminate endogenous Abcf1 levels. Abcf1 siRNA treated cells were washed with cold PBS twice and then Abcf1C647S expression plasmid was overexpressed. Cell lysates were prepared and subjected to co-immunoprecipitation with anti ABCF1 antibody. Extend of overexpression and co-immunoprecipitation was checked by western blot. Ubiquitination Assay was performed on immunoprecipitated samples with Ubiquitylation Assay Kit (abcam; ab139467) according to manufacturer's instructions. Samples were run on a gel and blotted with anti ABCF1 and anti UB antibodies.
To confirm the finding, enzyme activity of ABCF1 was investigated in presence and absence of cofactor Mg^2+ and ATP via an in vitro ubiquitination assay. […] As thio-ester bonds mediate ubiquitin attachment to the E2 enzyme and are DTT sensitive, no such protein band was observed when samples were treated with DTT.
To confirm if the conserved cysteine at position 647 in the ABCF1 sequence is the catalytic cysteine that mediates the E2 function, in vitro ubiquitination assay was performed with Abcf1 WT and Abcf1 C647S (where the cysteine was mutated to a serine) protein constructs. […]

For test [2], the system named is bone marrow derived macrophages (BMDM). As to the kind of experiment: Immunoblotting of BMDM lysates for protein expression and phosphorylation. The class given is cell-based, mouse. How it is done:
Western blotting: Cell lysates were prepared as described above. All co-immunoprecipitation samples were prepared without DTT in the sample buffer, unless otherwise mentioned. All other western blot samples were prepared with DTT in the sample buffer. Lysates were electrophoresed and immunoblotted with indicated antibodies.
Cytoplasmic and Nuclear fractionation: Bone marrow macrophages were stimulated with mentioned treatments and cytoplasmic and nuclear fractionation was performed with NE-PER Nuclear and Cytoplasmic Extraction Reagents (Thermo Scientific; 78833) according to manufacturer's instructions.
Cell lysates were prepared as described above. All co-immunoprecipitation samples were prepared without DTT in the sample buffer, unless otherwise mentioned. All other western blot samples were prepared with DTT in the sample buffer. Lysates were electrophoresed and immunoblotted with indicated antibodies.
Bone marrow macrophages were stimulated with indicated treatments and cytoplasmic and nuclear fractionation was performed with NE-PER Nuclear and Cytoplasmic Extraction Reagents (Thermo Scientific; 78833) according to manufacturer's instructions.
Background: Immunoblotting shows a protein as a band on a membrane.

For test [3], the system named is ABCF1. The following applies: cited from earlier work.
Where [4] appears, read: LPS (100 ng/ml) 30 min, SM 100 nM, Dynasore 80 μM.
Where [5] appears, read: induction of hypoxia, CoCl2 100 μM for 24 hours.
Setting [6] is: BMDMs treated with recombinant cytokine for 24 hours (TNFα 10 ng/ml, IL-1β 10 ng/ml, IL-10 50 ng/ml, IFNβ 10,000 IU/50 μl).

Regarding `O=C(N/N=C/c1ccc(O)c(O)c1)c1cc2ccccc2cc1O` [Dynasore], the “polyubiquitin linkage of ABCF1” value with ABCF1 [1] (Dynasore treatment alone) is listed as “led to K48-polyubiquitination”. Further, in the test with ABCF1 [1] (setting [4]), the “K48-polyubiquitination of ABCF1” value is recorded as “targeted for K48-polyubiquitination; also recorded: extensively upregulated” and the “K63-polyubiquitination of ABCF1” value is “no K63-polyubiquitination was observed; also recorded: greatly reduced”. Regarding “recombinant ABCF1: recombinant ABCF1 protein used in the in vitro ubiquitination assay”, the “mass / apparent molecular weight shift of ABCF1 (Ub thioester attachment)” value with ubiquitin is “increase in mass size; also recorded: increase in the apparent molecular weight”. On to `CN[C@@H](C)C(=O)N[C@H](C(=O)N1CCC[C@H]1Cn1nnnc1Sc1ccccc1)C(C)OCC#CC#CCO[C@H](C)[C@H](NC(=O)[C@H](C)NC)C(=O)N1CCCC1Cn1nnnc1Sc1ccccc1` (stereo partly shown) [SM], for which the “K63-polyubiquitination of ABCF1” value in the test on ABCF1 [1] (setting [4]) is reported as “increased”. In the test with ABCF1 [1] (LPS treatment for 10 minutes), the “polyubiquitin linkage of ABCF1” value is reported as “K63-polyubiquitination of ABCF1 instead”. On to `[Cl][Co][Cl]` [CoCl2, Cobalt Chloride], for which, in test [2] (setting [5]), the ABCF1 expression result is given as “decreased” and the HIF-1α expression entry was “increased”. Turning to `CN(C)CCC[C@@]1(c2ccc(F)cc2)OCc2cc(C#N)ccc21` [Escitalopram], the “effect on ABCF1 pathway” value in the test on ABCF1 [3] is recorded as “known enhancer of the ABCF1 pathway”. As to TNFα, in test [2] (setting [6]), the ABCF1 expression result was “decreased”.

B1: IFNβ: recombinant IFNβ (10,000 IU/50 μl) used to treat BMDMs (protein, UniProt P01575 22-182, looked up)
Interferon beta: INYKQLQLQERTNIRKCQELLEQLNGKINLTYRADFKIPMEMTEKMQKSYTAFAIQEMLQNVFLVFRNNFSSTGWNETIVVRLLDELHQQTVFLKTVLEEKQEERLTWEMSSTALHLKSYYWRVQRYLKLMKYNSYAWMVVRAEIFRNFLIIRRLTRNFQN
Consider B1, for which, in test [2] (setting [6]), the ABCF1 expression entry is given as “increased”.

B2: IL-10: recombinant IL-10 (50 ng/ml) used to treat BMDMs (protein, UniProt P18893 19-178, looked up)
Interleukin-10: SRGQYSREDNNCTHFPVGQSHMLLELRTAFSQVKTFFQTKDQLDNILLTDSLMQDFKGYLGCQALSEMIQFYLVEVMPQAEKHGPEIKEHLNSLGEKLKTLRMRLRRCHRFLPCENKSKAVEQVKSDFNKLQDQGVYKAMNEFDIFINCIEAYMMIKMKS
For B2, in test [2] (setting [6]), the ABCF1 expression entry is “increased”.

B3: IL-1β: recombinant IL-1β (10 ng/ml) used to treat BMDMs (protein, UniProt P10749 118-269, looked up)
Interleukin-1 beta: VPIRQLHYRLRDEQQKSLVLSDPYELKALHLNGQNINQQVIFSMSFVQGEPSNDKIPVALGLKGKNLYLSCVMKDGTPTLQLESVDPKQYPKKKMEKRFVFNKIEVKSKVEFESAEFPNWYISTSQAEHKPVFLGNNSGQDIIDFTMESVSS
Turning to B3, the ABCF1 expression result in test [2] (setting [6]) is on record as “decreased”.
